What was measured:
[1] = system: 4T1 cells; test: 4T1 lung metastasis model in BALB/c mice; format: in vivo, mouse; details: 4T1 tail vein, i.p. once a day, six days a week, three weeks
Procedure: (§1) Antitumor activity of Compound-5B in vivo in breast cancer. Based on the activity of Compound-5B in culture, the antitumor activity of Compound-5B was tested in vivo in two models of breast cancer (FIG. 4). Compound-5B produced a potent inhibition of Id-1 expression in human MDA-MB231 cells (FIG. 1A). We also determined whether it produced a similar effect in mouse 4T1 breast cancer cells. This cell line is commonly used for seeding a lung metastatic model in mice. […] LC=loading control (FIG. 4A). […] Lung metastases were generated in BALB/c mice by tail vein injection of 4×10^4 4T1 cells. Two days after the injection, the tumor bearing mice were injected i.p. once a day, six days a week, with vehicle or Compound 5B three weeks. Lung metastasis % (total metastatic foci in treated/vehicle×100) was evaluated (FIG. 4B). […] Animals with established tumors (average volume of 100 mm^3) were randomized and treated once daily, 6 days a week, with i.p., injections of vehicle, or 1 mg/kg Compound-5B, tumors were measured once weekly by an operator blinded to the treatment groups. Changes in tumor volume (mm^3) were calculated as (length×width2)/2. *indicates statistically significant differences between vehicle and Compound-5B (p<0.05, Two-way ANOVA repeated measures, and Tukey's multiple comparisons test).

[2] = system: MDA-MB231 cells; test: MDA-MB231 mammary fat pad primary tumor model in athymic nu/nu mice; format: in vivo, mouse; details: MDA-MB231, 1 mg/kg i.p. once daily, 6 days a week
Procedure: as §1

[3] = Plasma protein binding (Eurofins ADME); format: in vitro ADME
Procedure: (§2) Evaluating ADME of Compound-5B in vitro. It is important to evaluate ADME first in culture as it allows for the selection of the best candidate for PK analysis in vivo. ADME analysis of Compound-5B was performed by Eurofins.

[4] = system: PANC9; test: CellTiter-Glo cell proliferation, patient-derived PANC9 tumorspheres; format: cell-based; details: Homo sapiens, 72 h, three days treatment, read-out: IC50 category
Source text: Effects of Compound-5B on proliferation and Id-1 expression in pancreatic cell lines. Compound-5B was next tested for inhibition of cell viability/proliferation in the three pancreatic cancer cell lines and two primary patient-derived cancer cell lines. Compound-5B inhibited cell viability/proliferation of all the cancer cell lines (Table 2). The culturing condition for the pancreatic cell lines was similar to those used in the breast cancer lines, with the exception of the primary patient-derived pancreatic cancer cell lines (PANC9 and PANC13). For determining inhibition of cell proliferation in patient-derived pancreatic cancer cells were cultured in a T75 ultra low attachment flasks with DMEM/F12 media supplemented with B27, penicillin/streptomycin (10,000 u/mL), 50 µg/mL human epidermal growth factor (hEGF), 50 μg/mL human fibroblast growth factor, and 5 μg/mL heparin. Cells were plated in a 384-well plate and incubated for three days to promote the formation of tumorspheres. Cells were then treated with Compound-5B for three days. Cell proliferation of pancreatic cells in the presence of drug was measured using the CellTiter-Glo luminescent Assay and IC50 values were calculated (Table 2). The IC50 and corresponding 95% confidence limits (CL) were calculated using non-linear regression analysis.

[5] = system: SW1990; test: CellTiter-Glo cell proliferation, SW1990 pancreatic cancer cells; format: cell-based; details: Homo sapiens, read-out: IC50 category
Source text: Cell culture and treatment of pancreatic cancer cell lines: Pancreatic cancer cells lines BxPC-3, SW1990, and PANC-1 used in the experiments presented herein can be obtained from ATCC. The cells can be cultured and passaged in complete growth medium (RPMI-1640, Dulbecco's Modified Eagle Medium, or Leibovitz's L-15 medium) that has been supplemented with fetal bovine serum to a final concentration of 10%.
Effects of Compound-5B on proliferation and Id-1 expression in pancreatic cell lines. Compound-5B was next tested for inhibition of cell viability/proliferation in the three pancreatic cancer cell lines and two primary patient-derived cancer cell lines. Compound-5B inhibited cell viability/proliferation of all the cancer cell lines (Table 2). The culturing condition for the pancreatic cell lines was similar to those used in the breast cancer lines, with the exception of the primary patient-derived pancreatic cancer cell lines (PANC9 and PANC13). […] Cell proliferation of pancreatic cells in the presence of drug was measured using the CellTiter-Glo luminescent Assay and IC50 values were calculated (Table 2). […]

[6] = biological target: T1, HRH2 (Histamine receptor) (Homo sapiens, UniProt P25021); test: SAFETY scan E/IC50 ELECT, HRH2; format: biochemical; details: read-out: inhibition against HRH2 (mild)
T1 construct: purchased Eurofin's
T1 sequence (P25021 whole entry): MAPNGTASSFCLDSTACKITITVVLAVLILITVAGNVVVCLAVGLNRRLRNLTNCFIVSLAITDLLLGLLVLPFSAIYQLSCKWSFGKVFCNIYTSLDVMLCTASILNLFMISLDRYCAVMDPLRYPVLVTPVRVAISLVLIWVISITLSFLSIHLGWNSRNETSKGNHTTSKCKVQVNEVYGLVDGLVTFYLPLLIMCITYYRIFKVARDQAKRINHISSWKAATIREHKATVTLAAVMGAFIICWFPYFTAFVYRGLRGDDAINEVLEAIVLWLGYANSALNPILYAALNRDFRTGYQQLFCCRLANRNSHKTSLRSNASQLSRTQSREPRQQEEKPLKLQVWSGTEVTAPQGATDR

[7] = system: CYP450 isoforms; test: CYP450 isoform inhibition; format: in vitro ADME; details: 1 μM
Procedure: as §2

[8] = Aqueous solubility (Eurofins ADME); format: physicochemical
Procedure: as §2

[9] = biological target: T2, hERG (Homo sapiens, UniProt Q12809); test: hERG channel inhibition; format: biochemical
T2 construct: purchased Eurofins
T2 sequence (Q12809 whole entry): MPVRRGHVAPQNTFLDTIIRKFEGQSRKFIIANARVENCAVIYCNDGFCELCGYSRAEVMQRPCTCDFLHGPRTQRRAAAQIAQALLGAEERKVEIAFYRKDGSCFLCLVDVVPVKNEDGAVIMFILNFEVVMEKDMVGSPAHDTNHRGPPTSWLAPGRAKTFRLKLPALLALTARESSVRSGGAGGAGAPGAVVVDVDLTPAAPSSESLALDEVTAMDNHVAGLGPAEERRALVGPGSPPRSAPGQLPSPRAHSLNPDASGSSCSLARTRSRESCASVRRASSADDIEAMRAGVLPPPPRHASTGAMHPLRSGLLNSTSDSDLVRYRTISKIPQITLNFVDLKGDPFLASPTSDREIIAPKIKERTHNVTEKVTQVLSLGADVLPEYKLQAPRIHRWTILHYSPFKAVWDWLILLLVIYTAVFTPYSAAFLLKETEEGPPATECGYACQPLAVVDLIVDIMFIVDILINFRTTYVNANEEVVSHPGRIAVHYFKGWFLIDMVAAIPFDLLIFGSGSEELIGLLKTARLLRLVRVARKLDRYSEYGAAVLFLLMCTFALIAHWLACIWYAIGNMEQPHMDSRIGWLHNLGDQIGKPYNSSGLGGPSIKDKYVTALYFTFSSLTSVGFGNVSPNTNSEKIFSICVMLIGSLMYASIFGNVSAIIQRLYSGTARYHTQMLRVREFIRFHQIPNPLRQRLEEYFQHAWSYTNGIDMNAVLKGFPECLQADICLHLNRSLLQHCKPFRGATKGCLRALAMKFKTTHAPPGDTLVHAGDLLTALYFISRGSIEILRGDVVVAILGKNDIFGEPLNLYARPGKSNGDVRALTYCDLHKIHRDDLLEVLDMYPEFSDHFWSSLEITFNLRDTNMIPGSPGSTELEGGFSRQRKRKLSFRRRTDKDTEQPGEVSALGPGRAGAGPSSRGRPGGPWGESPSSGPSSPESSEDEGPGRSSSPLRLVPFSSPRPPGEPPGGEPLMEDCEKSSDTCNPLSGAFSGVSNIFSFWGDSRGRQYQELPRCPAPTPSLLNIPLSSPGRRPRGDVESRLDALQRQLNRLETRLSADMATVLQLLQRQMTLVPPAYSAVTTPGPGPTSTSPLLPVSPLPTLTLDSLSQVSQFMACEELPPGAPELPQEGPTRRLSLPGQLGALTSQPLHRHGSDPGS
Procedure: as §2

[10] = system: Id-1; test: Id-1 expression in MDA-MB231 cells (Western analysis); format: cell-based, human
Procedure: Quantitative Western analysis: Cells are cultured and treated in 6-well dishes. After the cells are washed twice with cold PBS, lysis buffer is added. The cells are then lysed by freezing for 10 min at −70° C. and then thawing at ambient temperature. The cell lysate is collected and the protein content is determined by using Bradford reagent. Equal amounts of protein are heated at 90° C. in Laemmli sample buffer which also included β-mercaptoethanol. The samples are then loaded onto a precast SDS-PAGE gel (Bio-Rad Laboratories, Hercules, CA). After which, proteins are then electroblotted onto an Immobilon membrane (Millipore, Billerica, MA) overnight at 2-4° C. The membrane is then blocked for 1 hour with 5% nonfat dry milk which included TBS+Tween. The membranes are then incubated with an anti-Id-1 primary antibody, and then an appropriate secondary antibody was used. Blots are incubated for 45 min and then washed 4 times with TBS+Tween for 15 min each. […]
Effects of Compound-5B on breast cancer cell proliferation, Id-1 expression and invasion in culture. […] The ability of the cells to migrate and invade in modified Boyden chambers was determined. The percentage relative invasion was calculated as the effect on treated cells/vehicle cells×100. […]

[11] = system: MDA-MB231 cells; test: Invasion in modified Boyden chambers, MDA-MB231 cells; format: cell-based, human
Procedure: Effects of Compound-5B on breast cancer cell proliferation, Id-1 expression and invasion in culture. […] The ability of the cells to migrate and invade in modified Boyden chambers was determined. The percentage relative invasion was calculated as the effect on treated cells/vehicle cells×100. Respective controls (vehicle treated cells) were set as 100%.

[12] = biological target: T3, ADRB2 (β-Adrenergic receptor) (Homo sapiens, UniProt P07550); test: SAFETY scan E/IC50 ELECT, ADRB2; format: biochemical; details: read-out: inhibition against ADRB2 (mild)
T3 construct: purchased Eurofin's
T3 sequence (P07550 whole entry): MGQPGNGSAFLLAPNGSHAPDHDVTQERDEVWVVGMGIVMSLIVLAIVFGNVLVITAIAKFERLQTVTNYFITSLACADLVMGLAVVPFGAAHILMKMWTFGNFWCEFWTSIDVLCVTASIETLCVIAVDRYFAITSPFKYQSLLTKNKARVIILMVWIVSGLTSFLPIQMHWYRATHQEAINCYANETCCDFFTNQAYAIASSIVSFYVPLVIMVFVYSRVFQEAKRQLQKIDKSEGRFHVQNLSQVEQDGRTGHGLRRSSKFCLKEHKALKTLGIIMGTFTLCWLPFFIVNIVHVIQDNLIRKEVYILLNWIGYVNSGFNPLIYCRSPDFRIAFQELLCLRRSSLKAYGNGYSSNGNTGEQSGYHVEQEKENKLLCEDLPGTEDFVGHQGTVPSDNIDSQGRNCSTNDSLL

SMILES: CCCCCCC(C)(C)c1cc(O)c(C(=O)Nc2ccccc2)c(O)c1 [Compound 5B, 2,6-dihydroxy-4-(2-methyloctan-2-yl)-N-phenylbenzamide]
- lung metastasis [1]: inhibits breast cancer metastasis
- primary tumor growth [2]: able to inhibit primary tumor growth
- plasma protein binding [3]: high
- IC50 [4]: < 0.5 µM
- IC50 [5]: < 0.5 µM
- IC50 [6]: 0.64 to 0.75 µM
- inhibition of important CYP450 isoforms [7]: does not inhibit
- aqueous solubility [8]: low
- inhibition of cardiac channel hERG [9]: no inhibition
- inhibition of Id-1 expression [10]: significant potency
- invasion of MDA-MB231 cells [11]: inhibits the invasion
- IC50 [12]: 0.64 to 0.75 µM

Source: US12612358B2, “Resorcinol-based compounds and uses thereof” (priority 2020, dated 2026)
